The results in this text go back to patent publication US20250346866A1, “CELL AGGREGATE DISSOCIATING AGENT” (AJINOMOTO CO., INC., priority 2023, published 2025).

Holding throughout (type): cell-based
Assay [1] deals with human iPS cells (1383D2 strain) cell aggregates. In words: Dissociation of human iPS cell aggregates by stirring with dissociation agent (micrographs, Vi-CELL viable cell density). The note with it: culture medium with 10 μM Y-27632; WK11 stirred 17 min, EDTA 2.5 mM stirred 14 min; FIG. 2, FIG. 3. As to the method:
The iPS cells maintenance cultured in (2) were seeded at a concentration of 1.5×10^5 cells/mL in a multi-well plate with StemFit (registered trademark) AK03N (Ajinomoto Co., Inc.) containing 10 μM Y-27632 added thereto, and cultured with stirring at a rotation speed of 70 rpm using an orbital shaker MaxQ™ 2000 CO2 Plus (Thermo Fisher Scientific) placed in a CO2 incubator at 37° C. One and three days after seeding, 50 vol % each of the medium was exchanged with AK02N, and the culture was continued until four days later to obtain cell aggregates.
To a culture medium containing the cell aggregates prepared in (3) were added Y-27632 (final concentration 10 μM) and WK11 pre-treated in (1), and the mixture was stirred for 17 min using an orbital shaker. Thereafter, the cell aggregates were sufficiently brought to a single-cell state by pipetting, and the viable cell density was measured using a live/dead cell autoanalyzer Vi-CELL XR (BECKMAN COULTER). […]
To a culture medium containing the cell aggregates prepared in (3) were added Y-27632 (final concentration 10 μM) and EDTA (final concentration 2.5 mM), and the mixture was stirred for 14 min using an orbital shaker. […] The viable cell density of the obtained cell suspension was measured using Vi-CELL XR.
The viable cell density in the culture medium was calculated from the Vi-CELL measured values in Example 1 (4), (5), and (6). […]

The subject of assay [2] is human iPS cells (1383D2 strain). In words: Suspension culture after passage: proliferation, viable cell density and aggregate formation. The note with it: for proliferation in 4 days after passage (viable cell density): seeded 1.5×10^5 cells/mL, 4 days suspension culture, FIG. 6. How it is done:
A new multi-well plate containing AK02N containing 10 μM Y-27632 was prepared, and the cells obtained in (4), (5), and (6) were respectively seeded at a density of 1.5×10^5 cells/mL. The cells were cultured in a CO2 incubator while stirring with an orbital shaker. One and three days after seeding, 50 vol % each of the medium was exchanged with AK02N, and the suspension culture was continued until four days later.
To accurately measure the number of viable cells, after four days of culture, under the same conditions, the following operation, including centrifugation, was performed. The entire volume of each culture medium was collected in a 15-mL conical tube, and the supernatant was removed by centrifugation (200 G, 5 min, 25° C.). Accutase™ (Nacalai Tesque Inc., 12679-54) (0.5 mL) was added and the mixture was heated at 37° C. for 15 min, after which the cell aggregates were sufficiently brought to a single-cell state by pipetting. The cells attached to the wall of the conical tube were sufficiently washed with AK02N, and the supernatant was removed by centrifugation (200 G, 5 min, 25° C.). The cells were resuspended in AK02N containing 10 μM Y-27632, and the viable cell density was measured using Vi-CELL XR.
The viable cell density in the culture medium was calculated from the Vi-CELL measured values in Example 1 (4), (5), and (6). A great difference in the viable cell density was not observed depending on the passage method. The viable cell density in the culture medium was calculated from the Vi-CELL measured values in Example 1 (7). The cells passaged using WK11 proliferated 3.4-fold in 4 days, whereas the cells passaged using EDTA without centrifugation removal proliferated 0.03-fold. Even when the centrifugation step was performed, the value was as low as 0.4-fold.

Assay [3] has as its system human iPS cells (1383D2 strain), CD30 expression. In words: Undifferentiated marker (CD30) positive rate by flow cytometry. The note with it: FIG. 7. How it is done:
The undifferentiated rate was evaluated for cells 4 days after suspension culture seeding, according to the following procedure.
1×10^5 cells were quantitatively collected, centrifuged (400 g, 5 min), and the supernatant was removed. 20 μL of PE Mouse Anti-Human CD30 (BD Pharmingen™) or PE Mouse IgG1, κ Isotype Control (BD Pharmingen™) diluted 5-fold with buffer was added and the cells were left standing for 20 min at 4° C. in the dark. After washing several times with buffer, the cells were analyzed using an Attune NXT Flow Cytometer (Thermo Fisher Scientific). […] However, measurement was not performed under conditions without a step of removing EDTA by centrifugation, because cells were not obtained.
(In flow cytometry, cells or beads pass a laser one at a time.)

Turning to `O=C(O)CN(CCN(CC(=O)O)CC(=O)O)CC(=O)O` [EDTA, ethylenediaminetetraacetic acid], the “state of cell aggregates after stirring (micrograph)” value in assay [1] was “fragmented and the intercellular binding was weakened”. Moreover, the “proliferation in 4 days after passage (viable cell density)” value in assay [2] (centrifugation step performed to remove the agent) is given as 0.4 fold; in assay [2] (no centrifugation removal of the dissociation agent), 0.03 fold. The “proliferation of passaged cells (micrograph)” value in assay [2] (suspension cultured 4 days after passage, FIG. 4) is recorded as “proliferated hardly”. In addition, the “aggregate formation of passaged cells (micrograph)” value in assay [2] (suspension cultured 4 days after passage, without a step of removing EDTA by centrifugation, FIG. 4) is “no aggregates were formed”. The “undifferentiated marker (CD30) positive rate” value is listed as “maintained high values” in assay [3] (Passage 1, 4 days after suspension culture seeding) and “maintained even after culture” in assay [3] (Passage 2, 4 days after suspension culture seeding, EDTA only with centrifugation removal).
